According to BindingDB's records for doi:10.1021/jm025558r (Friedrich-Alexander University, 2002):

What was measured:
[1] = target: 5-hydroxytryptamine receptor 1A (Sus scrofa); test: Displacement of [3H]- 8-OH-DPAT from porcine 5-hydroxytryptamine 1A receptor
[2] = target: D(1) dopamine receptor (Sus scrofa); test: Binding affinity for porcine Dopamine receptor D1 by [3H]-SCH- 23390 displacement.

O=C(NCCCCN1CCN(c2cccc(Cl)c2Cl)CC1)c1cc2ccccc2[te]1 [Benzo[b]tellurophene-2-carboxylic acid {4-[4-(2,3-dichloro-phenyl)-piperazin-1-yl]-butyl}-amide]
Ki [1]: 125 nM | Ki [2]: 1400 nM
